Reference: the supplement of paper PMC5412046

Key:
[1] = tested on: SB.msgc-1; assay: AC50 for growth inhibition (viability) (log10 M); higher = less potent; conditions: SB.msgc-1 (sporadic gastric cancer)
Procedure, shortened: (§1)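 After 48 h with compound, plates received CellTiter-Glo for 30 min at room temperature and were read for luminescence on a ViewLux. The cells were patient-derived gastric cancer lines of hereditary or sporadic origin, plated at 500 cells in 5 μL medium per 1536 well and pinned with 23 nL compound in DMSO, at 11 threefold dilutions from a final 46 μM. For the log half-maximal activity concentration, DMSO-normalised viability was fitted with four parameters and only high-quality curve classes were kept.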

[2] = tested on: SB.mhdgc-1; assay: as above; conditions: SB.mhdgc-1 (hereditary c.1380delA CDH1 gastric cancer)
Procedure, shortened: as §1

Structure (SMILES)	AC50 for growth inhibition (log10 M) [1]	AC50 for growth inhibition (log10 M) [2]
CC(=O)C\1=C(/C)C2=CN=C(NC3=CC=C(C=N3)N4CCNCC4)N=C2N(C5CCCC5)C1=O	-4.73	-4.93
CC(C)(C(=O)NCC(F)(F)C(F)(F)F)C(=O)N[C@@H]1C(=O)Nc2ccccc2-c2ccccc21	-5.23	-4.83
CC(C)(C)Cn1c(N)nc2ccc(-c3[nH]c(C(C)(C)C)nc3-c3ccc(F)cc3)nc21	-4.73	-4.53
CC(C)(O)Cn1c(NC(=O)c2ccc(-c3cn[nH]c3)s2)nc2cc(CN3CCOCC3)ccc21	-5.63	-5.83
CC(=O)Nc1ccc([C@H](C)C(=O)Nc2ncc(C(C)C)s2)cc1	-5.88	-7.13
CC(C)C[C@H](NC(=O)c1cc2ccccc2s1)C(=O)N1CCN(C(=O)[C@H](CO)N[S+](=O)([O-])c2ccc(Cl)cc2Cl)CC1	-4.73	-4.73
CC1(C)OC/2=C(\[C@H](NCC3=CC=CC=C3)[C@@H]1O)C(=O)C4=CC=CC=C4C2=O	-5.58	-5.43
Cc1c(C(=O)Nc2cccc(C(F)(F)F)c2)cc(-c2ccccc2)n1CCCN1CCOCC1	-4.83	-4.78
Cc1cccc2c1CC[C@H](CN1CCC(c3c(Cl)cccc3Cl)CC1)C[C@@H]2O	-4.78	-4.73
Cc1cccc(Nc2nc(N[C@@H]3CCCC[C@@H]3N)ncc2C(N)=O)c1	-4.63	-4.73
Cc1ccc([S+](=O)([O-])Nc2cc(Cl)ccc2C(=O)Nc2nc(-c3ccccc3)cs2)cc1	-5.28	-4.68
Cc1cnc(Nc2ccc(F)cc2Cl)nc1-c1c[nH]c(C(=O)N[C@H](CO)c2cccc(Cl)c2)c1	-4.73	-5.13
Cc1cn2c(-c3cn[nH]c3)cnc2c(Nc2ccc(C(=O)N3CCNCC3)cc2F)n1	-4.83	-4.98
Cc1c(Cn2c(C)nc3c(C(=O)O)cc(N4CCOCC4)cc32)cccc1C(F)(F)F	-5.88	-7.48
Cc1n[nH]c2ccc(-c3cncc(OC[C@@H](N)Cc4ccccc4)c3)cc12	-5.43	-6.43
CCc1cc(Nc2nccc(-c3c(-c4ccc(OC)c(C(=O)Nc5c(F)cccc5F)c4)nc4ccccn34)n2)c(OC)cc1N1CCC(N2CCN([S+](C)(=O)[O-])CC2)CC1	-5.63	-7.33
CCN(CC)CCCCNc1nc2cc(Cl)c(Cl)cc2nc1-c1ccc(-c2cccs2)s1	-4.68	-5.03
CCN(CC)CCOC1=CC=C(NC2=NC=C3\C=C(/C(=O)N(C)C3=N2)C4=C(Cl)C=CC=C4Cl)C=C1	-5.98	-5.18
CCN1CCN(CC1)CC(=O)NC2=CC=C(C3=C2C4=C(S3)C=CC=C4)C5=C6O\C(=C/C(=O)C6=CC=C5)N7CCOCC7	-5.68	-5.73
CCNC(=O)c1cc2c(-c3cc(OCCN4CCCC4)c(Cl)cc3Cl)nc(N)nc2s1	-6.38	-5.53
CCNC(=O)Nc1ccc2ncc(Nc3ccc(C)cc3)nc2n1	-6.43	-7.43
CCn1c(-c2nonc2N)nc2cnc(Oc3cccc(NC(=O)c4ccc(OCCN5CCOCC5)cc4)c3)cc21	-5.18	-4.98
CCn1cc(-c2ccnc3[nH]c(-c4cccc(CN(C)C)c4)cc23)c(-c2ccc(NC(=O)N(C)C)cc2)n1	-4.73	-5.38
CN(C)C(=O)[C@H](O)[C@H](Cc1ccccc1)NC(=O)c1cc2cc(Cl)ccc2[nH]1	-5.13	-5.23
CN(C)CC(=O)N1CCC(CC1)C2=CC=C(NC(=O)C3=NC(=C[NH]3)C#N)C(=C2)\C4=C\CCCC4	-5.23	-6.28
CN(C)Cc1cccc(N/C(=C2\C(=O)Nc3cc(C(=O)N(C)C)ccc32)c2ccccc2)c1	-5.23	-5.48
Cc1nc(Nc2n[nH]c3c2CN(C(=O)N[C@H](CN(C)C)c2ccccc2)C3(C)C)c2sccc2n1	-6.53	-5.98
CN(c1ncccc1CNc1nc(Nc2ccc3c(c2)CC(=O)N3)ncc1C(F)(F)F)[S+](C)(=O)[O-]	-5.13	-5.18

Structure (SMILES)	AC50 for growth inhibition (log10 M) [1]	AC50 for growth inhibition (log10 M) [2]
CN(C1CCc2c(c3ccccc3n2CC(=O)O)C1)[S+](=O)([O-])c1ccc(F)cc1 (stereo not given)	-4.73	-5.03
Cc1nn(Cc2ccccc2Cl)c(C)c1CN(C)CC(O)COc1ccc(Cl)cc1 (stereo not given)	-4.73	-4.78
CN1CCC(CC1)COC2=CN=C(N=C2)C3=CC(=CC=C3)CN4/N=C(\C=C/C4=O)C5=CC(=CC=C5)C#N	-6.78	-7.48
Cc1cnc(Nc2ccc(N3CCN(C)CC3)cc2)nc1Nc1cccc([S+](=O)([O-])NC(C)(C)C)c1	-4.98	-5.33
Cc1cc(Nc2cc(N3CCN(C)CC3)nc(/C=C/c3ccccc3)n2)n[nH]1	-4.27	-4.32
CN1CC[C@H]([C@@H](O)C1)C2=C(O)C=C(O)C3=C2O\C(=C/C3=O)C4=CC=CC=C4Cl	-7.13	-7.08
COc1ccccc1[C@H](c1cccc2ccccc12)[C@@](C)(C#N)C(=O)N1CCC(c2cccc(C(F)(F)F)c2)CC1	-5.48	-5.18
COc1ncc(-c2ccc3nccc(-c4ccnnc4)c3c2)cc1N[S+](=O)([O-])c1ccc(F)cc1F	-5.93	-7.38
COc1cc2ncnc(-n3nc(-c4ccccn4)nc3N)c2cc1OC	-4.78	-5.03
COc1cc2nc(-c3ccc(N4CCN(C)CC4)cc3)nc(NCCN3CCOCC3)c2cc1OC	-6.78	-5.28
COc1cc(OC)c(/C=C/[S+](=O)([O-])Cc2ccc(OC)c(NCC(=O)[O][Na])c2)c(OC)c1	-6.33	-6.03
COc1cc(Oc2ccnc3cc(OC)c(OC)cc23)ccc1NC(=O)NC(C)c1nccs1 (stereo not given)	-4.78	-4.73
COc1cc2ncn(-c3cc(OCc4ccccc4C(F)(F)F)c(C(N)=O)s3)c2cc1OC	-5.63	-5.43
CSC1=CC(=CC=C1)NC2=NC3=C(C=N2)/C=C(C(=O)N3C)/C4=C(Cl)C=CC=C4Cl	-5.93	-5.78
C[N]1C=C(C=N1)C2=C3\C=N/NC(=O)C4=C3C(=CC(=C4)NC(=O)[C@H](N)C5CCCCC5)[NH]2	-5.63	-6.08
Clc1cc(Cl)cc(CNc2ncncc2-c2ccc3c(c2)OCO3)c1	-4.78	-5.28
N#C/C(=C1/Nc2ccccc2S1)c1ccnc(OCc2ccc(CN3CCOCC3)cc2)n1	-5.98	-7.43
N=c1c2c(-c3ccccc3)c(-c3ccccc3)n(Cc3ccccc3)c2ncn1[C@H]1CC[C@H](O)CC1	-4.73	-4.58
NC/1=N/[C@]2(COC[C@H]2CS1)C3=CC(=CC=C3F)NC(=O)C4=NC=C(F)C=C4	-5.48	-5.93
NC1(Cc2ccc(Cl)cc2)CCN(c2ncnc3[nH]ccc23)CC1	-4.78	-4.83
NC1=C(Cl)C(=CC=N1)OC2=C(F)C=C(NC(=O)\C3=C\N\C=C(C3=O)\C4=CC=C(F)C=C4)C=C2	-4.73	-6.43
N#Cc1ccc(COC[C@H]2O[C@@H](n3c(NCc4ccc(Cl)c(Cl)c4)nc4c(N)ncnc43)[C@H](O)[C@@H]2O)cc1	-5.08	-4.93
NCC(=O)Nc1ccc(-n2nc(C(F)(F)F)cc2-c2ccc3c(ccc4ccccc43)c2)cc1	-4.63	-4.68
O=C1\C=C(/OC2=C1C=CC=C2C3=CC=CC=C3)N4CCOCC4	-4.73	-5.18
OC1=C(C=CC=C1)C2=CC=C(C=C2)C3=CSC4=C3C(=C(/C#N)C(=O)N4)/O	-4.78	-5.83
OC[C@H]1O[C@H]([C@@H](F)[C@@H]1O)N2\C=C/C(=O)NC2=O	-5.13	-5.08
O=C(Nc1ncc(SCCN2CCCC2)s1)[C@]1(c2ccc([S+](=O)([O-])C3CC3)cc2)C[C@H]1C1CCCCC1	-4.78	-5.03
